Reference: patent US12435080B2, “sGC stimulators” (Tisento Therapeutics Inc., priority 2016, dated 2025)
pEC50: −log10 of the molar value. Where “and” joins values, the source holds several entries; their conditions need not be identical. Equal entries are not always repeated. Where two headings read alike, the source gives them in different places.

Key:
sGC enzyme = target: T1, sGC enzyme (Homo sapiens, UniProt Q02108+Q02153); assay: cGMP GloSensor cell-based assay, 384-well format; settings: 10 μM DETA-NONOate, normalized to 30 μM Compound Y
T1 construct: incorporated into these cells detect cGMP formed by the compounds stimulating the sGC enzyme; host or cells: HEK293 cells stably expressing GloSensor 40F cGMP biosensor
T1 sequence (Q02153 1-619): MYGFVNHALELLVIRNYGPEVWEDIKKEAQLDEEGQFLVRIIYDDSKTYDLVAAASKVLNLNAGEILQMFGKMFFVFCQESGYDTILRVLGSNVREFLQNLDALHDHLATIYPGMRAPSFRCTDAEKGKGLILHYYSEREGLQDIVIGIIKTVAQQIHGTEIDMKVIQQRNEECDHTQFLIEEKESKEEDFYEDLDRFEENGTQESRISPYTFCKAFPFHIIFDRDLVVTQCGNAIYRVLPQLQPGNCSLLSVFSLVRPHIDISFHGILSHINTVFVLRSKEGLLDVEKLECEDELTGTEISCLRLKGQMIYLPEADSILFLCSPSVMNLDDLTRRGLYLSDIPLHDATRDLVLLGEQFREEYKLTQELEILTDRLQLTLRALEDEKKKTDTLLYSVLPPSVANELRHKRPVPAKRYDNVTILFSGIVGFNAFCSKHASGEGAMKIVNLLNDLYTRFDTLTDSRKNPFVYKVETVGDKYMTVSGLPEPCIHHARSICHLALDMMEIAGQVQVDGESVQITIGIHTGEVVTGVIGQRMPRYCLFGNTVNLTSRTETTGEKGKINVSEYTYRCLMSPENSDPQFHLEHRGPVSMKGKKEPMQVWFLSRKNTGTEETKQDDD
T1 sequence (Q02108 1-690): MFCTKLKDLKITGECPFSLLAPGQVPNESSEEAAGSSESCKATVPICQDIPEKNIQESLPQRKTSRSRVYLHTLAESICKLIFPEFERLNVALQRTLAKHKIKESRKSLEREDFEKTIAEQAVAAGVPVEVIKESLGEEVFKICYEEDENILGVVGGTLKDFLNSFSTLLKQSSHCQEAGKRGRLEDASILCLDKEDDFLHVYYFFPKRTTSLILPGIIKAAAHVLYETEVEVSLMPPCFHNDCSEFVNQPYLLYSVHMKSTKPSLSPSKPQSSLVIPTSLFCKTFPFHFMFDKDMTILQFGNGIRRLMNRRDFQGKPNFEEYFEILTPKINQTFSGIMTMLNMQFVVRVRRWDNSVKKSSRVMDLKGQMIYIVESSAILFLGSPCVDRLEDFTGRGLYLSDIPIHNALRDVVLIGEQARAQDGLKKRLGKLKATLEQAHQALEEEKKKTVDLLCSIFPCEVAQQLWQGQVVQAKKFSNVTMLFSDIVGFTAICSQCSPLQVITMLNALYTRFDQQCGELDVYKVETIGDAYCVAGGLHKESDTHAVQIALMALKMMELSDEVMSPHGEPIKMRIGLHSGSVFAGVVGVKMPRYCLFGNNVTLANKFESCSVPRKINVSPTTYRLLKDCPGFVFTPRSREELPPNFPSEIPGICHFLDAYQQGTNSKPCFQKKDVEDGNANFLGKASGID
Outline: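 HEK293 cells expressing GloSensor 40F cGMP luciferase biosensor, preloaded with 2 mM GloSensor substrate for 90 min at 25 °C. Endpoint luminescence read after 55 min compound incubation at room temperature.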

[1] = Rat cerebrospinal fluid (CSF) pharmacokinetic properties; assay type: in vivo; settings: for concentration at 1 h: CSF, male Sprague-Dawley rats, PO 10 mg/kg in PEG400, 1 h post-dosing, read-out: CSF Conc. (nM @ 1 h); for Kp uu at 1 h: male, Sprague-Dawley, CSF and plasma (unbound), unbound CSF/unbound plasma ratio, rats, PO 10 mg/kg
Description: PK in rats was determined following oral dosing. For the oral (PO) experiments, a group of 6 male Sprague-Dawley rats with an indwelling catheter placed in the cisterna magna were used. The PO group was dosed with 3 or 10 mg/kg of a compound formulated as a solution in PEG400. PO doses were administered by oral gavage and delivered to the stomach using a syringe and gavage tube. Following oral dosage administration, the gavage tube was flushed with approximately 0.5 mL of water to ensure complete delivery of the full dose.
Plasma and CSF samples were collected as follows: samples of CSF and blood were collected at 1 hour and 2 hours post-dosing. CSF samples (0.05 mL) were collected through the intracisternal catheter. Blood samples (0.25 mL) were collected through retro-orbital sampling. These samples were kept on ice until processed for plasma. Blood samples were centrifuged at 3200 rpm for 5 minutes at approximately 5° C. within 1 hour of collection. Plasma was directly transferred to a 96-well plate tube (0.125 mL). Plug caps were placed on the tubes and the tubes frozen at approximately −70° C. and stored until analysis.
Plasma was collected and analyzed for the presence of compound.
The compound in question and the internal standard were extracted from plasma and CSF by precipitation. Samples were analyzed using liquid chromatography (LC) with tandem mass spectrometric detection (MS/MS) using electrospray ionization. The standard curve range was from 1 to 1000 ng/mL. Results of the compounds described herein in this assay are illustrated in Tables 4A (for compounds in Table IA) and 4B (for compounds in Table IB) below.
Kp,uu is defined as the concentration ratio of unbound drug in CSF to unbound drug in plasma. Unbound drug in plasma (or free plasma concentration) is calculated by multiplying the total plasma concentration by the unbound fraction as determined by plasma protein binding. The CSF concentration is then divided by the free plasma concentration to determine the Kp,uu. (See e.g., Di et al., J. Med. Chem., 56, 2-12 (2013))

[2] = HEK293 cells expressing GloSensor 40F cGMP, compounds in Table IA, read-out: Glo-sensor AbsEC50
[3] = HEK293 cells expressing GloSensor 40F cGMP, compounds in Table IB, read-out: Glo-sensor Abs EC50

Row | SMILES | pEC50 (sGC enzyme; [2]) | other results
1 | Fc1ccc2c(Cc3cncnc3)nc(-c3nc(C(F)(F)F)n[nH]3)n2c1 [Compound I-12, 6-fluoro-1-(pyrimidin-5-ylmethyl)-3-(3-(trifluoromethyl)-1H-1,2,4-triazol-5-yl)imidazo[1,5-a]pyridine] |  | pEC50 (sGC enzyme; [3]): > 7.00; concentration at 1 h ([1]; compounds in Table IB): 45 nM; Kp uu at 1 h ([1]; compounds in Table IB): 0.16
2 | Fc1cncc(Cn2nc(-c3nc(C(F)(F)F)n[nH]3)c3cccnc32)c1 [Compound I-1, 1-((5-fluoropyridin-3-yl)methyl)-3-(3-(trifluoromethyl)-1H-1,2,4-triazol-5-yl)-1H-pyrazolo[3,4-b]pyridine] | > 7.00 | concentration at 1 h ([1]; compounds in Table IA): 164 nM; Kp uu at 1 h ([1]; compounds in Table IA): 0.24
3 | Fc1ccccc1Cn1nc(-c2nc(C(F)F)n[nH]2)c2cccnc21 [Compound I-20, 3-(3-(Difluoromethyl)-1H-1,2,4-triazol-5-yl)-1-(2-fluorobenzyl)-1H-pyrazolo[3,4-b]pyridine] | > 7.00 | concentration at 1 h ([1]; compounds in Table IA): 207 nM; Kp uu at 1 h ([1]; compounds in Table IA): 3.37
4 | Cc1ncc(Cc2nc(-c3nc(C(F)(F)F)n[nH]3)n3cc(Cl)cc(F)c23)cn1 [Compound I-27, 6-Chloro-8-fluoro-1-((2-methylpyrimidin-5-yl)methyl)-3-(3-(trifluoromethyl)-1H-1,2,4-triazol-5-yl)imidazo[1,5-a]pyridine] |  | pEC50 (sGC enzyme; [3]): < 6.00
5 | Cc1n[nH]c(-c2nc(Cc3cncnc3)c3ccccn23)n1 [Compound I-5, 3-(3-methyl-1H-1,2,4-triazol-5-yl)-1-(pyrimidin-5-ylmethyl)imidazo[1,5-a]pyridine] |  | pEC50 (sGC enzyme; [3]): 6.00 to 7.00; concentration at 1 h ([1]; compounds in Table IB): 30.4 nM; Kp uu at 1 h ([1]; compounds in Table IB): 1.08
6 | FC(F)(F)c1n[nH]c(-c2nn(CCC(F)(F)C(F)(F)F)c3cc(Cl)ccc23)n1 [Compound I-3, 6-chloro-1-(3,3,4,4,4-pentafluorobutyl)-3-(3-(trifluoromethyl)-1H-1,2,4-triazol-5-yl)-1H-indazole] | 6.00 to 7.00 | 
7 | Fc1ccccc1Cn1nc(-c2nc(-c3ccccc3)n[nH]2)c2cccnc21 [Compound I-39] | < 6.00 | 
8 | Fc1ccccc1Cn1nc(-c2ncn[nH]2)c2cccnc21 [Compound I-25] |  | pEC50 (sGC enzyme; Glo-sensor AbsEC50, HEK293 cells expressing GloSensor 40F cGMP, compounds in Table IA): 6.00 to 7.00
9 | NC(=O)c1n[nH]c(-c2nn(Cc3ccccc3F)c3ncccc23)n1 [Compound I-40, 5-(1-(2-fluorobenzyl)-1H-pyrazolo[3,4-b]pyridin-3-yl)-1H-1,2,4-triazole-3-carboxamide] | 6.00 to 7.00 | 
10 | Fc1ccccc1Cn1nc(-c2nc(C(F)(F)F)n[nH]2)c2ccncc21 [Compound I-32] | 6.00 to 7.00 | 

Further lines, with some results ahead:

Row | pEC50 (sGC enzyme; [2]) | SMILES | other results
11 | > 7.00 | N#Cc1n[nH]c(-c2nn(Cc3cccc(F)c3F)c3ncccc23)n1 [Compound I-92, 5-(1-(2,3-Difluorobenzyl)-1H-pyrazolo[3,4-b]pyridin-3-yl)-1H-1,2,4-triazole-3-carbonitrile] | concentration at 1 h ([1]; compounds in Table IA): 10.8 nM; Kp uu at 1 h ([1]; compounds in Table IA): 0.52
12 | < 6.00 | O=C(CC(F)(F)F)Nc1n[nH]c(-c2nn(Cc3ccccc3F)c3ncccc23)n1 [Compound I-126] | 
13 | < 6.00 | CCC(=O)c1n[nH]c(-c2nn(Cc3ccccc3F)c3ncccc23)n1 [Compound I-66] | 
14 | 6.00 to 7.00 | COCc1n[nH]c(-c2nn(Cc3ccccc3F)c3ncccc23)n1 [Compound I-112, 1-(2-Fluorobenzyl)-3-(3-(methoxymethyl)-1H-1,2,4-triazol-5-yl)-1H-pyrazolo[3,4-b]pyridine] | 
15 | 6.00 to 7.00 | CC(C)(C)OC(=O)NC1(c2n[nH]c(-c3nn(Cc4ccccc4F)c4ncccc34)n2)COC1 [Compound I-76, tert-Butyl (3-(5-(1-(2-fluorobenzyl)-1H-pyrazolo[3,4-b]pyridin-3-yl)-1H-1,2,4-triazol-3-yl)oxetan-3-yl)carbamate] | 
16 | 6.00 to 7.00 | Fc1n[nH]c(-c2nn(Cc3ccccc3F)c3ncccc23)n1 [Compound I-45, 3-(3-fluoro-1H-1,2,4-triazol-5-yl)-1-(2-fluorobenzyl)-1H-pyrazolo[3,4-b]pyridine] | 
17 | 6.00 to 7.00 | CC(C)(O)c1n[nH]c(-c2nn(Cc3ccccc3F)c3ncccc23)n1 [Compound I-94, 2-(5-(1-(2-fluorobenzyl)-1H-pyrazolo[3,4-b]pyridin-3-yl)-1H-1,2,4-triazol-3-yl)propan-2-ol] | 
18 | 6.00 to 7.00 and < 6.00 | CC1(c2n[nH]c(-c3nn(Cc4ccccc4F)c4ncccc34)n2)COC1 [Compound I-70, 1-(2-fluorobenzyl)-3-(3-(3-methyloxetan-3-yl)-1H-1,2,4-triazol-5-yl)-1H-pyrazolo[3,4-b]pyridine] | 
19 | 6.00 to 7.00 | Fc1ccccc1Cn1nc(-c2nc(CCCCl)n[nH]2)c2cccnc21 [Compound I-69, 3-(3-(3-chloropropyl)-1H-1,2,4-triazol-5-yl)-1-(2-fluorobenzyl)-1H-pyrazolo[3,4-b]pyridine] | 
20 | > 7.00 | Fc1cccc(Cn2nc(-c3nc(C(F)(F)F)n[nH]3)c3cccnc32)c1 [Compound I-52, 1-(3-Fluorobenzyl)-3-(3-(trifluoromethyl)-1H-1,2,4-triazol-5-yl)-1H-pyrazolo[3,4-b]pyridine] | 
